Experimental data published in ChEMBL document CHEMBL5143625, “Isolation, synthesis and bioactivity evaluation of isoquinoline alkaloids from Corydalis hendersonii Hemsl. against gastric cancer in vitro and in vivo” (Bioorg Med Chem, 2022).
Calls of active or inactive are those of the source. The rule behind the calls is not given here.

Legend:
MGC-803 [1] = assay: Antiproliferative activity against human MGC-803 cells assessed as reduction in cell viability after 24 hrs by MTT assay; format: functional, cell-based; settings: MGC-803, 24 h
HGC-27 [2] = assay: Antiproliferative activity against human HGC-27 cells assessed as reduction in cell viability after 24 hrs by MTT assay; format: functional, cell-based; settings: HGC-27, 24 h
HGC-27 [3] = assay: Inhibition of colony formation in human HGC-27 cells at 1 to 8 uM after 7 to 10 days by crystal violet staining based assay; format: functional, cell-based; settings: dose 1-8 µM, time 7-10 day, DDE = dose-dependent effect
MGC-803 [4] = assay: Antiproliferative activity against human MGC-803 cells assessed as EdU positive cells at 0.5 to 4 uM for 24 hrs by y EdU assay (reference value: 65.2%); format: functional; settings: dose 0.5-4 µM
HGC-27 [5] = assay: Antiproliferative activity against human HGC-27 cells assessed as EdU positive cells at 1 to 8 uM for 24 hrs by y EdU assay (reference value: 56.2%); format: functional; settings: dose 1-8 µM
MGC-803 [6] = assay: Inhibition of cell migration in human MGC-803 cells assessed as reduction in migration at 0.5 to 4 uM for 24 hrs by wound healing assay; format: functional, cell-based; settings: dose 0.5-4 µM, DDE = dose-dependent effect
HGC-27 [7] = assay: Inhibition of cell migration in human HGC-27 cells assessed as reduction in migration at 1 to 8 uM for 24 hrs by wound healing assay; format: functional, cell-based; settings: dose 1-8 µM, DDE = dose-dependent effect
HGC-27 [8] = assay: Inhibition of cell migration in human HGC-27 cells assessed as reduction in migration at 1 to 8 uM for 24 hrs by transwell migration assay; format: functional, cell-based; settings: dose 1-8 µM, DDE = dose-dependent effect
MGC-803 [9] = assay: Inhibition of cell invasion in human MGC-803 cells assessed as reduction in invasion at 0.5 to 4 uM for 24 hrs by transwell invasion assay; format: functional, cell-based; settings: dose 0.5-4 µM, DDE = dose-dependent effect
MGC-803 [10] = assay: Down regulation of MMP9 expression in human MGC-803 cells at 1.25 to 10 uM after 24 hrs by western blot analysis; format: functional, cell-based; settings: dose 1.25-10 µM, DDE = dose-dependent effect
HGC-27 [11] = assay: Down regulation of MMP9 expression in human HGC-27 cells at 2 to 16 uM after 24 hrs by western blot analysis; format: functional, cell-based; settings: dose 2-16 µM, DDE = dose-dependent effect
MGC-803 [12] = assay: Induction of cell cycle arrest in human MGC-803 cells assessed as cells accumulation at G2/M phase at 1.25 to 10 uM after 48 hrs by propidium iodide staining based flow cytometric analysis(reference value: 13.1%); format: functional; settings: dose 1.25-10 µM
HGC-27 [13] = assay: Induction of cell cycle arrest in human HGC-27 cells assessed as cells accumulation at G2/M phase at 2 to 16 uM after 48 hrs by propidium iodide staining based flow cytometric analysis (reference value: 5.3%); format: functional; settings: dose 2-16 µM
HGC-27 [14] = assay: Induction of apoptosis in human HGC-27 cells assessed as increase in twin-kiling cell nuclei at 2 to 16 uM by Hoechst 33342 staining based fluorescent microscopic analysis; format: functional; settings: dose 2-16 µM
MGC-803 [15] = assay: Induction of mitochondrial membrane potential loss in human MGC-803 cells assessed as TMRE positive cells at 1.25 to 10 uM by TRME staining based flow cytometric analysis (reference value: 6.8%); format: functional, cell-based; settings: dose 1.25-10 µM, DDE = dose-dependent effect
HGC-27 [16] = assay: Induction of mitochondrial membrane potential loss in human HGC-27 cells assessed as TMRE positive cells at 2 to 16 uM by TRME staining based flow cytometric analysis (reference value: 5.8%); format: functional, cell-based; settings: dose 2-16 µM, DDE = dose-dependent effect
MGC-803 [17] = assay: Induction of apoptosis in human MGC-803 cells assessed as increase in Bax expression at 1.25 to 10 uM by western blot analysis; format: functional, cell-based; settings: dose 1.25-10 µM, DDE = dose-dependent effect
HGC-27 [18] = assay: Induction of apoptosis in human HGC-27 cells assessed as increase in Bax expression at 2 to 16 uM by western blot analysis; format: functional, cell-based; settings: dose 2-16 µM, DDE = dose-dependent effect
MGC-803 [19] = assay: Induction of apoptosis in human MGC-803 cells assessed as decrease in cytochrome C expression at 1.25 to 10 uM by western blot analysis; format: functional, cell-based; settings: dose 1.25-10 µM, DDE = dose-dependent effect
MGC-803 [20] = assay: Induction of apoptosis in human MGC-803 cells assessed as increase in cleaved caspase-3 expression at 1.25 to 10 uM by western blot analysis; format: functional, cell-based; settings: dose 1.25-10 µM, DDE = dose-dependent effect
HGC-27 [21] = assay: Induction of apoptosis in human HGC-27 cells assessed as increase in cleaved caspase-3 expression at 2 to 16 uM by western blot analysis; format: functional, cell-based; settings: dose 2-16 µM, DDE = dose-dependent effect
MGC-803 [22] = assay: Induction of ROS generation in human MGC-803 cells at 1.25 to 10 uM by DCFH-DA staining based fluorescence microscopic analysis; format: functional, cell-based; settings: dose 1.25-10 µM, DDE = dose-dependent effect
HGC-27 [23] = assay: Induction of ROS generation in human HGC-27 cells at 2 to 16 uM by DCFH-DA staining based fluorescence microscopic analysis; format: functional, cell-based; settings: dose 2-16 µM, DDE = dose-dependent effect
HGC-27 [24] = assay: Inhibition of PI3K/AKT/mTOR signalling pathway in human HGC-27 cells assessed as reduction in PI3K phosphorylation at 2 to 16 uM by western blot analysis; format: cell-based; settings: dose 2-16 µM, DDE = dose-dependent effect
MGC-803 [25] = assay: Inhibition of PI3K/AKT/mTOR signalling pathway in human MGC-803 cells assessed as reduction in AKT phosphorylation at 1.25 to 10 uM by western blot analysis; format: cell-based; settings: dose 1.25-10 µM, DDE = dose-dependent effect
HGC-27 [26] = assay: Inhibition of PI3K/AKT/mTOR signalling pathway in human HGC-27 cells assessed as reduction in AKT phosphorylation at 2 to 16 uM by western blot analysis; format: cell-based; settings: dose 2-16 µM, DDE = dose-dependent effect
MGC-803 [27] = assay: Inhibition of PI3K/AKT/mTOR signalling pathway in human MGC-803 cells assessed as reduction in mTOR phosphorylation at 1.25 to 10 uM by western blot analysis; format: cell-based; settings: dose 1.25-10 µM, DDE = dose-dependent effect
HGC-27 [28] = assay: Inhibition of PI3K/AKT/mTOR signalling pathway in human HGC-27 cells assessed as reduction in mTOR phosphorylation at 2 to 16 uM by western blot analysis; format: cell-based; settings: dose 2-16 µM, DDE = dose-dependent effect
Homo sapiens = species: Homo sapiens; assay: Inhibition of DNA topoisomerase 1 (unknown origin) assessed as relaxation of supercoiled plasmid pBR322 DNA at 12.5 to 100 uM incubated for 30 mins by agarose gel electrophoresis; settings: dose 12.5-100 µM
[29] = Half life in Sprague-Dawley rat at 50 mg/kg, ip measured upto 24 hrs by LC-MS analysis; format: ADME, organism-based; settings: in vivo
[30] = Tmax in Sprague-Dawley rat at 50 mg/kg, ip measured upto hrs by LC-MS analysis; format: ADME, organism-based; settings: in vivo, time < 24 hrs
[31] = Cmax in Sprague-Dawley rat at 50 mg/kg, ip measured upto 24 hrs by LC-MS analysis; format: ADME, organism-based; design: time < 24 hrs, dose 50 mg/kg, route ip; settings: in vivo
[32] = MRT(0 to t) in Sprague-Dawley rat at 50 mg/kg, ip measured upto 24 hrs by LC-MS analysis; format: ADME, organism-based; settings: in vivo
MGC-803 [33] = assay: Antitumor activity against human MGC-803 cells xenografted in immunodeficient nude mouse assessed as tumor volume at 50 mg/kg, ip administered for 3 weeks (reference value: 1039.6 mm3); format: functional
MGC-803 [34] = assay: Antitumor activity against human MGC-803 cells xenografted in immunodeficient nude mouse assessed as tumor weight at 50 mg/kg, ip administered for 3 weeks (reference value: 157.8 mg); format: functional
MGC-803 [35] = assay: Antitumor activity against human MGC-803 cells xenografted in immunodeficient nude mouse assessed as increase in TUNEL positive cells at 50 mg/kg, ip administered for 3 weeks by fluorescence microscopic analysis; format: functional, organism-based

Oc1c(Cc2nccc3cc4c(cc23)OCO4)ccc2c1OCO2
IC50 (MGC-803 [1]): 5.1 µM | IC50 (HGC-27 [2]): 7.6 µM | inhibition (HGC-27 [3]): Dde | Activity (MGC-803 [4]): 19.9% | Activity (HGC-27 [5]): 20.8% | inhibition (MGC-803 [6]): Dde | inhibition (HGC-27 [7]): Dde | inhibition (HGC-27 [8]): Dde | inhibition (MGC-803 [9]): Dde | Activity (MGC-803 [10]): Dde | Activity (HGC-27 [11]): Dde | Activity (MGC-803 [12]): 54.4% | Activity (HGC-27 [13]): 51.2% | Activity (HGC-27 [14]): 41.1% | Activity (HGC-27 [14]; DDE = dose-dependent effect): Dde | Activity (MGC-803 [15]): Dde | Activity (HGC-27 [16]): Dde | Activity (MGC-803 [17]): Dde | Activity (HGC-27 [18]): Dde | Activity (MGC-803 [19]): Dde | Activity (MGC-803 [20]): Dde | Activity (HGC-27 [21]): Dde | Activity (MGC-803 [22]): Dde | Activity (HGC-27 [23]): Dde | inhibition (HGC-27 [24]): Dde | inhibition (MGC-803 [25]): Dde | inhibition (HGC-27 [26]): Dde | inhibition (MGC-803 [27]): Dde | inhibition (HGC-27 [28]): Dde | inhibition (Homo sapiens): Active | half-life [29]: 2.3 h | Tmax [30]: 2 h | Cmax [31]: 8900 ng/mL | MRT last at 24 h [32]: 3.3 h | Activity (MGC-803 [33]): 440.1 mm3 | Activity (MGC-803 [34]): 176.2 mg | Activity (MGC-803 [35]): Active
